Measured values published in US20210189352A1, “ENHANCED REPROGRAMMING OF SOMATIC CELLS” (IMBA - INSTITUT FÜR MOLEKULARE BIOTECHNOLOGIE GMBH, priority 2017, published 2021).

Test system: murine embryonic stem cell clone AN3-12
Test: Etoposide treatment of mouse ES cells (LD30 dose)
Assay type: cell-based
Conditions: 8 day treatment, medium supplemented every day
Protocol: A murine embryonic stem cell clone, derived from a derivative of HMSc2 termed AN3-12, with doxycycline inducible Cas9 (T3G-Cas9-IRES-mcherry PGK-GFP-rtTA) was used for this study. The following ES cell medium (ESCM) was used: 450 ml DMEM (Sigma D1152); 75 ml FCS (Invitrogen); 5.5 ml P/S (Sigma P0781); 5.5 ml NEAA (Sigma M7145); 5.5 ml LGlu (Sigma G7513); 5.5 ml NaPyr (Sigma S8636); 0.55 ml beta-mercapto ethanol (Merck 805740; dilute 10 μl bME in 2.85 ml PBS for a 1000× stock), 7.5 μl LIF (IMBA-MolBioService; 2 mg/ml). Cell culture-grade dishes were from Greiner (Greiner 15 cm 639160) and NUNC (all other formats, e.g. 10 cm dish Nunclon A Surface, cat no. 150350; 6-well Nunclon A Surface, cat no. 140675). Cells were trypsinized and replated every 2nd day and frozen in FCS:ESCM:DMSO=4.5:4.5:1. Cells were tested for mycoplasma every second week. Etoposide treatment: Medium was supplemented every day with 3.3 nM etoposide, an LD30 dose for 8 day treatment (Sigma E2600000), 1000× etoposide stocks dissolved in PBS-10% EtOH were used. For doxycycline treatment, medium was supplemented every day with 1 μg/ml (Sigma). Cells are tested for mycoplasma contamination every second week.

## COc1cc([C@@H]2c3cc4c(cc3[C@@H](O[C@@H]3O[C@@H]5CO[C@@H](C)O[C@H]5[C@H](O)[C@H]3O)[C@H]3COC(=O)[C@H]23)OCO4)cc(OC)c1O [etoposide]
  LD30 dose: 3.3 nM
